Assay results as given in US12201610B2, “Compositions comprising aticaprant” (Janssen Pharmaceuticals, Inc., priority 2022, dated 2025).

Test system: subjects with MDD
Assay: SHAPS total score / anhedonia level (Example 6)
Assay type: in vivo, human
Conditions: for SHAPS Total Score Change from Baseline LSMean (SE) / SHAPS Total Score LSMean Difference (SE) Treatment Placebo: MMRM; for SHAPS Total Score Effect Size: negative favors aticaprant
Text: To assess a potential effect on anhedonia, an anhedonia scale may be used. For example, the Snaith-Hamilton Pleasure Scale (SHAPS) analysis is a validated scale for the measurement of anhedonia. The SHAPS is a subject completed scale in which subjects score whether or not they experience pleasure in performing a list of activities or experiences. The SHAPS is a self-reported 14-item instrument, developed for the assessment of hedonic capacity. Subjects score whether they experience pleasure in performing a list of activities or experiences. Subjects can rate the answers as 1-4 where 1 indicates “Definitely agree”, 2 indicates “Agree”, 3 indicates “Disagree” and 4 indicates “Definitely disagree”. The subject's item responses are summed to provide a total score ranging from 14 to 56. A higher total SHAPS score indicates higher levels of current anhedonia. Physician/clinical judgment can be used to assess anhedonia separately or in conjunction with an anhedonia scale.
In some embodiments, the patient has moderate anhedonia. In other embodiments, the patient has severe anhedonia. An assessment of moderate or severe anhedonia is typically determined physician/clinical judgment and/or by one or more tests that provide insight into whether a patient has anhedonia. For example, the severity of the anhedonia may be determined using the SHAPS method. In some embodiments, a patient with moderate or severe anhedonia is considered to have a high level of anhedonia. For example, a patient with a SHAPS score of 38 or greater is considered to have moderate to severe anhedonia that can be considered a high level of anhedonia. In some embodiments, a high level of anhedonia is reflected by a SHAPS score of at least about 40, about 42, about 44, about 46, about 48, about 50, about 52, about 54, about 56, […]. A patient with mild or no anhedonia would be considered to have a low level of anhedonia that is assessed by physician/clinical judgment and/or one or more tests. For example, a patient with a SHAPS score of less than 38 is considered to have low anhedonia. In certain embodiments, a patient with mild anhedonia may have a SHAPS score of 20 to less than 38, for example, a SHAPS score of 20 to about 36, about 22 to about 36, about 24 to about 36, about 26 to about 36, about 26 to about 34, about 26 to about 32, about 26 to about 30, about 26 to about 28, about 28 to about 36, about 28 to about 36, about 30, to about 36, about 32 to about 36, about 34 to about 36, about 20 to about 34, about 22 to about 34, about 24 to about 34, about 26 to about 32, about 26 to about 30, about 26 to about 28, about 28 to about 36, about 28 to about 34, about 28 to about 32, about 28 to about 30, about 30 to about 36, about 30 to about 34, about 30 to about 32, about 32 to about 36, about 32 to about 34, or about 34 to about 36. Typically, a SHAPS score of less than 20 can be considered to correspond to normal hedonic functioning, and for purposes of this disclosure, would fall into the low category of anhedonia, e.g., a SHAPS score of less than 38.
iii. To investigate the effect of aticaprant versus placebo on depression related anhedonia as assessed by the SHAPS.
• (i) Depression: Montgomery-Åsberg Depression Rating Scale (MADRS), Clinical Global Impression-Severity (CGI-S), Symptoms of Major Depressive Disorder Scale (SMDDS), and Self-assessment of treatment experience (SATE) • (ii) Anhedonia: Snaith-Hamilton Pleasure Scale (SHAPS) • (iii) Anxiety: Structured Interview Guide for the Hamilton Anxiety scale (SIGH-A) and HAM-A6 • (iv) Effects on Cognition: The Cognitive and Physical Functioning Questionnaire (CPFQ) • (v) Safety assessments
Changes in SHAPS total score were analyzed with the same MMRM model used for MADRS total score. The estimated LS Mean difference with 80% 2-sided CI at treatment week 6 between aticaprant and placebo was −0.7 [−1.81, 0.41]. See, FIG. 7 and Tables 28 and 29 and FIG. 18. The corresponding p-value was 0.419.

[1] = eITT Analysis Set, Treatment Baseline
[2] = eITT Analysis Set, Treatment Week 1
[3] = eITT Analysis Set, Treatment Week 3
[4] = eITT Analysis Set, Treatment Week 4
[5] = eITT Analysis Set, Treatment Week 5
[6] = eITT Analysis Set, Treatment Week 6
[7] = eITT, Treatment Week 1, 10 mg adjunctive to SSRI/SNRI
[8] = eITT, Treatment Week 3, 10 mg adjunctive to SSRI/SNRI
[9] = eITT, Treatment Week 4, 10 mg adjunctive to SSRI/SNRI
[10] = eITT, Treatment Week 5, 10 mg adjunctive to SSRI/SNRI
[11] = eITT, Treatment Week 6, 10 mg adjunctive to SSRI/SNRI
[12] = fITT Analysis Set, Baseline/Day 22, Table 42
[13] = fITT Analysis Set, Treatment Baseline
[14] = fITT Analysis Set, Treatment Week 1
[15] = fITT Analysis Set, Treatment Week 3
[16] = fITT Analysis Set, Treatment Week 4
[17] = fITT Analysis Set, Treatment Week 5
[18] = fITT Analysis Set, Treatment Week 6

Cc1cc(C)cc(C2CCCN2Cc2ccc(Oc3ccc(C(N)=O)cc3F)cc2)c1 (centres unmarked) [aticaprant, 3-fluoro-4-4-2-(3,5-dimethylphenyl)pyrrolidin-1-yl-methylphenoxybenzamide]
SHAPS total score estimated LS mean difference between aticaprant and placebo, MMRM (Treatment Week 6, population not given, follows Table 29 (fITT)): −0.8
Frequency of subjects: High Level of Anhedonia (SHAPS Total Score >= 38), % [1]: (43.33%)
Frequency of subjects: Low Level of Anhedonia (20 <= SHAPS Total Score < 38), % [1]: 56.67%
SHAPS Total Score Change from Baseline Mean (SD) [2]: −1.9
SHAPS Total Score Mean (SD) [2]: 34.5
SHAPS Total Score Change from Baseline LSMean (SE) [2]: −1.7
SHAPS Total Score LSMean Difference (SE) Treatment Placebo [2]: −0.8 (0.86)
SHAPS Total Score Change from Baseline Mean (SD) [3]: −3.4
SHAPS Total Score Mean (SD) [3]: 33.0
SHAPS Total Score Change from Baseline LSMean (SE) [3]: −3.2
SHAPS Total Score LSMean Difference (SE) Treatment Placebo [3]: −1.4 (0.86)
SHAPS Total Score Change from Baseline Mean (SD) [4]: −4.5
SHAPS Total Score Mean (SD) [4]: 32.0
SHAPS Total Score Change from Baseline LSMean (SE) [4]: −4.3
SHAPS Total Score LSMean Difference (SE) Treatment Placebo [4]: −1.4 (0.86)
SHAPS Total Score Change from Baseline Mean (SD) [5]: −4.3
SHAPS Total Score Mean (SD) [5]: 32.4
SHAPS Total Score Change from Baseline LSMean (SE) [5]: −4.0
SHAPS Total Score LSMean Difference (SE) Treatment Placebo [5]: −0.5 (0.87)
Frequency of subjects: High Level of Anhedonia (SHAPS Total Score >= 38), % [6]: (13.56%)
Frequency of subjects: Low Level of Anhedonia (20 <= SHAPS Total Score < 38), % [6]: 81.36%
Frequency of subjects: No Anhedonia (SHAPS Total Score < 20), % [6]: 5.08%
SHAPS Total Score Change from Baseline Mean (SD) [6]: −4.6
SHAPS Total Score Mean (SD) [6]: 31.9
SHAPS Total Score Change from Baseline LSMean (SE) [6]: −4.4
SHAPS Total Score LSMean Difference (SE) Treatment Placebo [6]: −0.7 (0.87)
SHAPS Total Score Mean Change from Baseline (SD) [7]: −1.9 (4.30)
SHAPS Total Score Mean Change to Placebo (SD pooled) [7]: −0.6 (3.77)
SHAPS Total Score Effect Size (eITT, Treatment Week 1, vs placebo): −0.15
SHAPS Total Score Mean Change from Baseline (SD) [8]: −3.4 (5.25)
SHAPS Total Score Mean Change to Placebo (SD pooled) [8]: −1.2 (4.96)
SHAPS Total Score Effect Size (eITT, Treatment Week 3, vs placebo): −0.25
SHAPS Total Score Mean Change from Baseline (SD) [9]: −4.5 (5.89)
SHAPS Total Score Mean Change to Placebo (SD pooled) [9]: −1.2 (5.21)
SHAPS Total Score Effect Size (eITT, Treatment Week 4, vs placebo): −0.23
SHAPS Total Score Mean Change from Baseline (SD) [10]: −4.3 (6.07)
SHAPS Total Score Mean Change to Placebo (SD pooled) [10]: −0.4 (5.49)
SHAPS Total Score Effect Size (eITT, Treatment Week 5, vs placebo): −0.08
SHAPS total score estimated LS mean difference between aticaprant and placebo, MMRM (eITT, Treatment Week 6): −0.7
SHAPS Total Score Mean Change from Baseline (SD) [11]: −4.6 (6.23)
SHAPS Total Score Mean Change to Placebo (SD pooled) [11]: −0.4 (5.66)
Frequency of subjects: Anhedonia (SHAPS Total Score >=20), % [12]: 98.8%
Frequency of subjects: No Anhedonia (SHAPS Total Score < 20), % [12]: 1.2%
Frequency of subjects: High Level of Anhedonia (SHAPS Total Score >= 38), % [13]: 36.14%
Frequency of subjects: Low Level of Anhedonia (20 >= SHAPS Total Score <38), % [13]: 62.65%
Frequency of subjects: No Anhedonia (SHAPS Total Score < 20), % (fITT Analysis Set, Treatment Baseline, Table 44): 1.2%
SHAPS Total Score Mean (SD) [14]: 32.9
SHAPS Total Score Mean Change to Placebo (SD pooled) [14]: −0.6 (3.82)
SHAPS Total Score Change from Baseline Mean (SD) (fITT Analysis Set, Treatment Week 1 (Table 29)): −2.0
SHAPS Total Score Mean Change from Baseline (SD) (fITT Analysis Set, Treatment Week 1 (Table 30)): −2.0 (4.05)
SHAPS Total Score Change from Baseline LSMean (SE) [14]: −1.9
SHAPS Total Score LSMean Difference (SE) Treatment Placebo [14]: −1.0 (0.72)
SHAPS Total Score Effect Size [14]: −0.15
SHAPS Total Score Mean (SD) [15]: 31.9
SHAPS Total Score Mean Change to Placebo (SD pooled) [15]: −1.0 (5.09)
SHAPS Total Score Change from Baseline Mean (SD) (fITT Analysis Set, Treatment Week 3 (Table 29)): −3.2
SHAPS Total Score Mean Change from Baseline (SD) (fITT Analysis Set, Treatment Week 3 (Table 30)): −3.2 (5.07)
SHAPS Total Score Change from Baseline LSMean (SE) [15]: −3.1
SHAPS Total Score LSMean Difference (SE) Treatment Placebo [15]: −1.4 (0.73)
SHAPS Total Score Effect Size [15]: −0.20
SHAPS Total Score Mean (SD) [16]: 30.8
SHAPS Total Score Mean Change to Placebo (SD pooled) [16]: −1.2 (5.08)
SHAPS Total Score Change from Baseline Mean (SD) (fITT Analysis Set, Treatment Week 4 (Table 29)): −4.2
SHAPS Total Score Mean Change from Baseline (SD) (fITT Analysis Set, Treatment Week 4 (Table 30)): −4.2 (5.70)
SHAPS Total Score Change from Baseline LSMean (SE) [16]: −4.1
SHAPS Total Score LSMean Difference (SE) Treatment Placebo [16]: −1.6 (0.73)
SHAPS Total Score Effect Size [16]: −0.23
SHAPS Total Score Mean (SD) [17]: 30.9
SHAPS Total Score Mean Change to Placebo (SD pooled) [17]: −0.5 (5.24)
SHAPS Total Score Change from Baseline Mean (SD) (fITT Analysis Set, Treatment Week 5 (Table 29)): −4.3
SHAPS Total Score Mean Change from Baseline (SD) (fITT Analysis Set, Treatment Week 5 (Table 30)): −4.3 (5.70)
SHAPS Total Score Change from Baseline LSMean (SE) [17]: −4.1
SHAPS Total Score LSMean Difference (SE) Treatment Placebo [17]: −0.8 (0.73)
SHAPS Total Score Effect Size [17]: −0.09
Frequency of subjects: High Level of Anhedonia (SHAPS Total Score >= 38), % [18]: 10.39%
Frequency of subjects: Low Level of Anhedonia (20 >= SHAPS Total Score <38), % [18]: 80.52%
Frequency of subjects: No Anhedonia (SHAPS Total Score < 20), % [18]: 9.09%
SHAPS Total Score Mean (SD) [18]: 30.5
SHAPS Total Score Mean Change to Placebo (SD pooled) [18]: −0.5 (5.45)
SHAPS Total Score Change from Baseline Mean (SD) (fITT Analysis Set, Treatment Week 6 (Table 29)): −4.7
SHAPS Total Score Mean Change from Baseline (SD) (fITT Analysis Set, Treatment Week 6 (Table 30)): −4.7 (5.91)
SHAPS Total Score Change from Baseline LSMean (SE) [18]: −4.5
SHAPS Total Score LSMean Difference (SE) Treatment Placebo [18]: −0.8 (0.73)
SHAPS Total Score Effect Size [18]: −0.08
SHAPS total score mean change from treatment baseline (SD) (fITT, Treatment Week 6): −4.7 (5.91)
SHAPS total score observed effect size (fITT, Treatment Week 6): 0.08
